Experimental data: PMC10835127, “Viruses traverse the human proteome through peptide interfaces that can be biomimetically leveraged for drug discovery” (Proceedings of the National Academy of Sciences of the …, 2024)
Like-named read-outs stand apart in the source and are kept apart here.

Experiments:
influenza A H1N1 virus = conditions: 48 hr post-treatment, A549
HCV replicon = format: cell-based; conditions: normalized mean of HCV replicon readout
[1] = tested on: F. novicida (strain U112); format: cell-based
HIV1 strain NL4-3 = format: cell-based; conditions: normalized mean of HIV1 replication readout
EBV = conditions: normalized mean of EBV replication readout

Row | Substance | Neuraminidase activity normalized to vehicle (influenza A H1N1 virus; 200 µM peptide) | Neuraminidase activity normalized to vehicle (influenza A H1N1 virus; 0,823 µM peptide) | Neuraminidase activity normalized to vehicle (influenza A H1N1 virus; 22,2 µM peptide) | Neuraminidase activity normalized to vehicle (influenza A H1N1 virus; 2,4691 µM peptide) | Neuraminidase activity normalized to vehicle (influenza A H1N1 virus; 7,4074 µM peptide) | Neuraminidase activity normalized to vehicle (influenza A H1N1 virus; 66,6667 µM peptide) | HCV Norm MEAN (HCV replicon) | Francisella novicida Norm AUC [1] | HIV1 Norm MEAN (HIV1 strain NL4-3) | EBV Norm MEAN (EBV) | HCV Norm MEAN (HCV replicon; peptide screen) | HIV1 Norm MEAN (HIV1 strain NL4-3; peptide screen) | EBV Norm MEAN (EBV; peptide screen)
1 | LEDLL [CPEP131] | 1,0859 | 1,0236 | 1,0471 | 1,0486 | 0,9867 | 1,1075 | 0.1994 | 1.169 | 2.616 | 1.433 | – | – | –
2 | LERVIFPSVKIATLV [CPEP53] | 0,9303 | 0,9211 | 1,0363 | 1,008 | 1,0347 | 1,0977 | – | 0.5248 | – | – | 0.3466 | 0.6568 | 1.031
3 | CPEP103: viral library peptide from HCV NS4A targeting EEF1A1 (GCVVIVGRIVLSGK) | 0,0978 | 0,8342 | 0,2828 | 0,8866 | 0,7276 | 0,1254 | – | 0.5448 | – | – | 0.4622 | 0.2448 | 0.7665
4 | CPEP61: peptide of the viral peptide library; sequence page not shown (KRRKSGAKRR) | 0,867 | 1,0166 | 1,0577 | 1,0813 | 0,9769 | 1,1022 | 0.1619 | 0.6493 | 1.461 | 3.372 | – | – | –
5 | CPEP126: peptide of the viral peptide library; sequence page not shown (TQNLYPDLSEIKK) | 0,8408 | 0,9498 | 0,8904 | 0,9431 | 0,8627 | 0,9364 | – | 1.192 | – | – | 0.4853 | 0.6553 | 0.8026
6 | HVKNG [CPEP123] | 0,78 | 0,7776 | 0,8404 | 0,7299 | 0,7535 | 0,9273 | 0.1965 | 0.9754 | 1.079 | 1.599 | – | – | –
7 | CPEP142: peptide of the viral peptide library; sequence page not shown (LGIVCPICSQKP) | 0,8923 | 0,9385 | 0,9689 | 0,9538 | 0,9445 | 1,085 | 0.308 | 1.819 | 0.603 | 1.863 | – | – | –
8 | YLTDM [CPEP154] | 1,0928 | 1,0316 | 1,0253 | 0,9855 | 1,0107 | 1,0399 | 0.1792 | 0.5909 | 1.461 | 1.807 | – | – | –
9 | CPEP140: peptide of the viral peptide library; sequence page not shown (RKKRRQRRRA) | 0,616 | 0,9961 | 1,0982 | 1,0685 | 0,9007 | 1,0124 | 0.5668 | 0.8228 | 1.188 | 1.618 | – | – | –
10 | ELLSGLQEWL [CPEP85] | 0,9118 | 0,9858 | 0,8356 | 0,9371 | 0,8683 | 0,8029 | 0.7957 | 1.212 | 0.5625 | 1.35 | – | – | –
11 | CPEP96: peptide of the viral peptide library; sequence page not shown (GRKKRRQRRRAHQ) | 0,8043 | 0,9089 | 0,9748 | 0,9539 | 0,8942 | 0,9344 | – | 1.029 | – | – | 0.3919 | 0.5669 | 1.164
12 | LTMVI [CPEP12] | 0,732 | 0,7557 | 0,8312 | 0,7112 | 0,7657 | 0,8968 | 0.1977 | 1.651 | 1.936 | 1.608 | – | – | –
13 | SKMQL [CPEP150] | 1,0149 | 0,912 | 0,9305 | 0,7746 | 0,8703 | 0,9907 | 0.2118 | 0.5976 | 1.8032 | 1.198 | – | – | –
14 | CPEP135: peptide of the viral peptide library; sequence page not shown (KGHRGSHTMNGH) | 0,865 | 0,9322 | 0,9598 | 0,9359 | 0,8333 | 0,9822 | 0.5732 | 1.216 | 0.5949 | 0.8556 | – | – | –
15 | DKELYPLTSLRSLFG [CPEP65] | 0,356 | 0,8623 | 1,0442 | 0,9706 | 0,9802 | 1,0044 | – | 0.6089 | – | – | 0.8278 | 0.2888 | 0.6954
